We go through 7 compounds from patent US12545673B2, “Imidazopyridine derivative and pharmaceutical composition comprising same as active ingredient” (TSD LIFE SCIENCES CO., LTD., priority 2019, dated 2026).

The test addresses MLK3 (Homo sapiens (Human), UniProt Q16584). In words: Evaluation of inhibitory activity of enzyme units, MLK3 ([γ-33P]-ATP filter assay). The conditions noted are these: read-out: IC50(nM) MLK3.

Chain of MLK3 (Q16584 whole entry, looked up): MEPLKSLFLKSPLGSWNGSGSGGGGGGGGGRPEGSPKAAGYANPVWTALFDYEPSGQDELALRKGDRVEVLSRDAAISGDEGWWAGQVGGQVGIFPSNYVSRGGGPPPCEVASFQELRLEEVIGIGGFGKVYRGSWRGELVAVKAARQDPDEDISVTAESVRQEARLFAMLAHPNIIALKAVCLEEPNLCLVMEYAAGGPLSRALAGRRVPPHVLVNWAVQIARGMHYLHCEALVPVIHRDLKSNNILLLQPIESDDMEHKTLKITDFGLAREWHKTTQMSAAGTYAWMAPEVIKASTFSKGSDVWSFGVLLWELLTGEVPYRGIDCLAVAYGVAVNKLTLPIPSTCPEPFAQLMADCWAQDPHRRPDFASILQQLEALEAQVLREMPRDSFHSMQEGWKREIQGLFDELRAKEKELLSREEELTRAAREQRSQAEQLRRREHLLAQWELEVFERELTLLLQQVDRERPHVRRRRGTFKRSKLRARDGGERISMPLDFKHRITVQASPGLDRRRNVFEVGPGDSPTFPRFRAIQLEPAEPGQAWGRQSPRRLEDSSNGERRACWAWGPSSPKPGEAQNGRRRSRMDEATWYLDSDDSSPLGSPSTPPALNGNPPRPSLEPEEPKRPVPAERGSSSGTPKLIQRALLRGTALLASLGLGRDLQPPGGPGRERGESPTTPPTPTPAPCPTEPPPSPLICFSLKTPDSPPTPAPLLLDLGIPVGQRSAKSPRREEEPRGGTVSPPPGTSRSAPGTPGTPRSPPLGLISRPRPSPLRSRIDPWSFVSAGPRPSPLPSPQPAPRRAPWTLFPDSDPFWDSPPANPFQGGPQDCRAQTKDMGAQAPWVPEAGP

As usually defined, the IC50 is the midpoint of a concentration-inhibition curve. `CCS(=O)(=O)N1CC[C@H](Nc2c(Br)cnc3[nH]c(-c4cc(C)n(-c5ccc(C(=O)NCCN(C)C)cc5)c4C)nc23)C1` [Example 62, (S)-4-(3-(6-bromo-7-((1-(ethylsulfonyl)pyrrolidine-3-yl)amino)-3H-imidazo[4,5-b]pyridine-2-yl)-2,5-dimethyl-1H-pyrrol-1-yl)-N-(2-(dimethylamino)ethyl)benzamide]: the IC50 is 17 nM. As for `CCS(=O)(=O)N1CC[C@H](Nc2c(Br)cnc3[nH]c(-c4cc(C)n(-c5ccc(C(=O)N(C)CCN(C)C)cc5)c4C)nc23)C1` [Example 63, (S)-4-(3-(6-bromo-7-((1-(ethylsulfonyl)pyrrolidine-3-yl)amino)-3H-imidazo[4,5-b]pyridine-2-yl)-2,5-dimethyl-1H-pyrrol-1-yl)-N-(2-(dimethylamino)ethyl)-N-methylbenzamide], the figure is 14 nM; as for `CCS(=O)(=O)N1CC[C@H](Nc2c(Br)cnc3nc(-c4cc(C)n(-c5cccc(C(=O)NCCN(C)C)c5C)c4C)[nH]c23)C1` [Example 82, 3-(3-(6-bromo-7-(((S)-1-(ethylsulfonyl)pyrrolidine-3-yl)amino)-1H-imidazo[4,5-b]pyridine-2-yl)-2,5-dimethyl-1H-pyrrol-1-yl)-N-(2-(dimethylamino)ethyl)-2-methylbenzamide], 14 nM; as for `CCS(=O)(=O)N1CC[C@H](Nc2c(Br)cnc3nc(-c4cc(C)n(-c5cccc(NC(=O)CN(C)C)c5C)c4C)[nH]c23)C1` [Example 84, N-(3-(3-(6-bromo-7-(((S)-1-(ethylsulfonyl)pyrolidine-3-yl)amino)-1H-imidazo[4,5-b]pyridine-2-yl)-2,5-dimethyl-1H-pyrrol-1-yl)-2-methylphenyl)-2-(dimethylamino) acetamide], 8 nM. As for `CCS(=O)(=O)N1CC[C@H](Nc2c(Br)cnc3nc(-c4cc(C)n(-c5cccc(NC(=O)CN6CCOCC6)c5C)c4C)[nH]c23)C1` [Example 85, N-(3-(3-(6-bromo-7-(((S)-1-(ethylsulfonyl)pyrrolidine-3-yl)amino)-1H-imidazo[4,5-b]pyridine-2-yl)-2,5-dimethyl-1H-pyrrol-1-yl)-2-methylphenyl)-2-morpholinoacetamide], the figure is 11 nM; as for `CCS(=O)(=O)N1CC[C@H](Nc2c(Br)cnc3nc(-c4cc(C)n(-c5cc(C(=O)N6CCN(C)CC6)ccc5C)c4C)[nH]c23)C1` [Example 92, (3-(3-(6-bromo-7-(((S)-1-(ethylsulfonyl)pyrrolidine-3-yl)amino)-1H-imidazo[4,5-b]pyridine-2-yl)-2,5-dimethyl-1H-pyrrol-1-yl)-4-methylphenyl) (4-methylpiperazine-1-yl) methanone], 26 nM. As for `CCS(=O)(=O)N1CC[C@H](Nc2c(Br)cnc3[nH]c(-c4cc(C)n(-c5ccc(C(=O)N6CCN(C)CC6)cc5C)c4C)nc23)C1` [Example 97, (4-(3-(6-bromo-7-(((S)-1-(ethylsulfonyl)pyrrolidine-3-yl)amino)-3H-imidazo[4,5-b]pyridine-2-yl)-2,5-dimethyl-1H-pyrrol-1-yl)-3-methylphenyl) (4-methylpiperazine-1-yl) methanone], the figure is 20 nM.
